Literature values as cited in patent US20200121704A1, “METHODS FOR TREATING HYPERTENSION AND ARTERIAL STIFFNESS” (THE REGENTS OF THE UNIVERSITY OF COLORADO, A BODY CORPORATE, priority 2017, published 2020).

Legend:
[1] = system: old mice; details: supplementation; cited from earlier work
[2] = system: Klotho deficient mice; details: cited from earlier work
[3] = system: endothelial cells; details: cited from earlier work
[4] = system: ET-1; details: animal models of hypercholesterolemia and cardiac hypertrophy; cited from earlier work

NC(=O)c1ccc[n+]([C@@H]2O[C@H](COP(=O)([O-])O)[C@@H](O)[C@H]2O)c1 [NMN, nicotinamide mononucleotide]
Aortic stiffening [1]: reverses aortic stiffening in old mice to youthful levels

O=C(Nc1ccccc1-c1cn2c(CN3CCNCC3)csc2n1)c1cnc2ccccc2n1 [SRT1720]
Development of hypertension ([2]; Klotho deficient mice (a model of accelerated aging)): protects against the development of hypertension | Development of arterial stiffness ([2]; klotho deficient mice): prevented the development of arterial stiffness

Oc1ccc(C=Cc2cc(O)cc(O)c2)cc1 [resveratrol]
Secretion of ET-1 by endothelial cells [3]: suppressed | Circulating ET-1 levels [4]: decreases circulating ET-1 levels
